Experimental data: ChEMBL document CHEMBL5113489, “Design, synthesis, and biological evaluation of membrane-active honokiol derivatives as potent antibacterial agents” (Eur J Med Chem, 2022)
Calls of active or inactive are those of the source. The calls are words filed in the database; no cut-off is given here.

Assays:
[1] = Cytotoxicity against human HepG2 cells assessed as cell viability at 4 ug/ml measured by SRB assay; format: toxicity, cell-based; conditions: at 4 µg/mL, read-out: Activity
Staphylococcus aureus [2] = assay: Anti-biofilm activity in Staphylococcus aureus ATCC 43300 assessed as disruption rate of biofilm at 1 ug/ml measured by crystal violet staining method; format: functional; conditions: dose 1 µg/ml
Escherichia coli [3] = assay: Anti-biofilm activity in Escherichia coli ATCC 25922 assessed as disruption rate of biofilm at 16 ug/ml measured by crystal violet staining method; format: functional; conditions: dose 16 µg/ml
Staphylococcus aureus [4] = assay: In vivo antibacterial activity against Staphylococcus aureus ATCC 43300 in septicemia mouse model assessed as reduction in bacterial load in spleen at 10 mg/kg, administered every 12 hrs for 3 days; format: functional; parameters: scale not given: the % may be the effect or the level left
Escherichia coli [5] = assay: Anti-biofilm activity in Escherichia coli ATCC 25922 assessed as inhibition of biofilm formation at 8 ug/ml; format: functional
[6] = Cytotoxicity against human HepG2 cells assessed as cell viability at 64 ug/ml measured by SRB assay; format: toxicity, cell-based; conditions: at 64 µg/mL, read-out: Activity
Escherichia coli [7] = assay: Anti-biofilm activity in Escherichia coli ATCC 25922 assessed as disruption rate of biofilm at 64 ug/ml measured by crystal violet staining method; format: functional; conditions: dose 64 µg/ml
[8] = Cytotoxicity against human HepG2 cells assessed as cell viability at 32 ug/ml measured by SRB assay; format: toxicity, cell-based; conditions: at 32 µg/mL, read-out: Activity
Bacillus subtilis = assay: Antibacterial activity against Bacillus subtilis ATCC 9372; format: functional
Staphylococcus aureus [9] = assay: Anti-biofilm activity in Staphylococcus aureus ATCC 43300 assessed as disruption rate of biofilm at 0.5 ug/ml measured by crystal violet staining method; format: functional; conditions: dose 0.5 µg/ml
Pseudomonas aeruginosa = assay: Antibacterial activity against Pseudomonas aeruginosa ATCC 27853; format: functional
[10] = Toxicity in septicemia mouse model infected with Staphylococcus aureus ATCC 43300 assessed as effect on liver at 5 to 10 mg/kg, administered every 12 hrs for 3 days measured by histopathological analysis; format: organism-based; conditions: in vivo, dose 5-10 mg/kg
Staphylococcus aureus [11] = assay: Anti-biofilm activity in Staphylococcus aureus ATCC 43300 assessed as inhibition of biofilm formation at 2 ug/ml; format: functional
Escherichia coli [12] = assay: Antibacterial activity against Escherichia coli ATCC 25922 assessed as bacterial killing at 8XMIC incubated for 3 hrs and measured by time-kill kinetic study; format: functional
Staphylococcus aureus [13] = assay: In vivo antibacterial activity against Staphylococcus aureus ATCC 43300 in septicemia mouse model assessed as reduction in bacterial load in liver at 10 mg/kg, administered every 12 hrs for 3 days; format: functional; parameters: scale not given: the % may be the effect or the level left
Escherichia coli [14] = assay: Anti-biofilm activity in Escherichia coli ATCC 25922 assessed as inhibition of biofilm formation at 32 ug/ml; format: functional
Staphylococcus aureus [15] = assay: Anti-biofilm activity in Staphylococcus aureus ATCC 43300 assessed as disruption rate of biofilm at 2 ug/ml measured by crystal violet staining method; format: functional; conditions: dose 2 µg/ml
[16] = Toxicity in septicemia mouse model infected with Staphylococcus aureus ATCC 43300 assessed as effect on kidney at 5 to 10 mg/kg, administered every 12 hrs for 3 days measured by histopathological analysis; format: organism-based; conditions: in vivo, dose 5-10 mg/kg
[17] = Cytotoxicity against human HepG2 cells assessed as cell viability at 8 ug/ml measured by SRB assay; format: toxicity, cell-based; conditions: at 8 µg/mL, read-out: Activity
Staphylococcus aureus [18] = assay: In vivo antibacterial activity against Staphylococcus aureus ATCC 43300 in septicemia mouse model assessed as log reduction in bacterial load in spleen at 10 mg/kg, administered every 12 hrs for 3 days; format: functional
Escherichia coli [19] = assay: Anti-biofilm activity in Escherichia coli ATCC 25922 assessed as inhibition of biofilm formation at 16 ug/ml; format: functional
[20] = Selectivity index, ratio of HC50 for hemolytic activity in sheep RBC to MIC for antibacterial activity against Staphylococcus aureus ATCC 43300; format: toxicity; conditions: sheep red blood cells (erythrocytes)
Escherichia coli [21] = assay: Anti-biofilm activity in Escherichia coli ATCC 25922 assessed as disruption rate of biofilm at 2 ug/ml measured by crystal violet staining method; format: functional; conditions: dose 2 µg/ml
Staphylococcus aureus [22] = assay: In vivo antibacterial activity against Staphylococcus aureus ATCC 43300 in septicemia mouse model assessed as log reduction in bacterial load in liver at 10 mg/kg, administered every 12 hrs for 3 days; format: functional
Staphylococcus aureus [23] = assay: Anti-biofilm activity in Staphylococcus aureus ATCC 43300 assessed as inhibition of biofilm formation at 0.25 ug/ml; format: functional
Cell membrane [24] = assay: Induction of cell membrane disruption in Staphylococcus aureus ATCC 43300 assessed as increase in fluorescence intensity at 8 times MIC measured after 2 hrs by PI staining based fluorescence microscopic analysis; format: subcellular
Staphylococcus aureus [25] = assay: Anti-biofilm activity in Staphylococcus aureus ATCC 43300 assessed as inhibition of biofilm formation at 0.5 ug/ml; format: functional
Cell membrane [26] = assay: Induction of cell membrane disruption in Escherichia coli ATCC 25922 assessed as increase in fluorescence intensity at 8 times MIC measured after 2 hrs by DAPI staining based fluorescence microscopic analysis
Staphylococcus aureus [27] = assay: Antibacterial activity against Staphylococcus aureus ATCC 31007; format: functional
[28] = Hemolytic activity in sheep RBC; format: toxicity, cell-based, Ovis aries, Erythrocyte; conditions: sheep red blood cells (erythrocytes)
Staphylococcus aureus [29] = assay: Anti-biofilm activity in Staphylococcus aureus ATCC 43300 assessed as inhibition of biofilm formation at 4 ug/ml; format: functional
Escherichia coli [30] = assay: Anti-biofilm activity in Escherichia coli ATCC 25922 assessed as disruption rate of biofilm at 4 ug/ml measured by crystal violet staining method; format: functional; conditions: dose 4 µg/ml
Escherichia coli [31] = assay: Antibacterial activity against Escherichia coli ATCC 25922 assessed as bacterial killing at 4 x MIC incubated for 9 hrs and measured by time-kill kinetic study; format: functional
Cell membrane [32] = assay: Induction of cell membrane disruption in Escherichia coli ATCC 25922 assessed as increase in fluorescence intensity at 8 times MIC measured after 2 hrs by PI staining based fluorescence microscopic analysis; format: subcellular
[33] = Cytotoxicity against human HepG2 cells assessed as cell viability at 128 ug/ml measured by SRB assay; format: toxicity, cell-based; conditions: dose 128 µg/ml, read-out: Activity
Staphylococcus aureus [34] = assay: Antibacterial activity against Staphylococcus aureus ATCC 43300 assessed as bacterial killing at 4 x MIC incubated for 9 hrs and measured by time-kill kinetic study; format: functional
Escherichia coli [35] = assay: Anti-biofilm activity in Escherichia coli ATCC 25922 assessed as inhibition of biofilm formation at 2 ug/ml; format: functional
Staphylococcus aureus [36] = assay: Antibacterial activity against Staphylococcus aureus ATCC 43300 assessed as resistance development by measuring fold increase in MIC; format: functional
Escherichia coli [37] = assay: Anti-biofilm activity in Escherichia coli ATCC 25922 assessed as inhibition of biofilm formation at 4 ug/ml; format: functional
Escherichia coli [38] = assay: Anti-biofilm activity in Escherichia coli ATCC 25922 assessed as inhibition of biofilm formation at 1 ug/ml; format: functional
[39] = Cytotoxicity against human HepG2 cells assessed as cell viability at 16 ug/ml measured by SRB assay; format: toxicity, cell-based; conditions: at 16 µg/mL, read-out: Activity

With `C=CCc1ccc(OCCC[N+](C)(C)CCCCCC)c(-c2ccc(OCCC[N+](C)(C)CCCCCC)c(CC=C)c2)c1.[Br-].[Br-]` the viability at 4 ug/ml [1] was 94.7%, the Activity (Staphylococcus aureus [2]) was 9.59% and the Activity (Escherichia coli [3]) was 51.55%. For the same compound, the Activity (Staphylococcus aureus [4]) was 99.3%, the inhibition at 8 µg/mL (Escherichia coli [5]) was 49.3% and the viability at 64 ug/ml [6] was 55.2%. The Activity (Escherichia coli [7]) was 65.6%, the viability at 32 ug/ml [8] was 68.1% and the MIC (Bacillus subtilis) was 1 µg/mL. For the same compound, the Activity (Staphylococcus aureus [9]) was 5.22%, the MIC (Pseudomonas aeruginosa) was 16 µg/mL and the Activity [10] was “Non-Toxic”. For the same compound, the inhibition at 2 µg/mL (Staphylococcus aureus [11]) was 20.1%, the Activity (Escherichia coli [12]) was 100% and the Activity (Staphylococcus aureus [13]) was 99.5%. For the same compound, the inhibition at 32 µg/mL (Escherichia coli [14]) was 87.4%, the Activity (Staphylococcus aureus [15]) was 11.43% and the Activity [16] was “Non-Toxic”. For the same compound, the viability at 8 ug/ml [17] was 90.3%, the “log(activity)” value (Staphylococcus aureus [18]) was 2.19 and the inhibition at 16 µg/mL (Escherichia coli [19]) was 65.4%. The selectivity ratio [20] was 410, the Activity (Escherichia coli [21]) was 15.1% and the “log(activity)” value (Staphylococcus aureus [22]) was 2.35. The inhibition at 0.25 µg/mL (Staphylococcus aureus [23]) was 4.06%, the Activity (Cell membrane [24]) was “Active” and the inhibition at 0.5 µg/mL (Staphylococcus aureus [25]) was 9.72%. For the same compound, the Activity (Cell membrane [26]) was “Active”, the MIC (Staphylococcus aureus [27]) was 0.5 µg/mL and the HC50 [28] was 410 µg/mL. For the same compound, the inhibition at 4 µg/mL (Staphylococcus aureus [29]) was 91.2%, the Activity (Escherichia coli [30]) was 27.99% and the Activity (Escherichia coli [31]) was “>=99%”. The Activity (Cell membrane [32]) was “Active”, the viability at 128 ug/ml [33] was 36.6% and the Activity (Staphylococcus aureus [34]) was “>=99%”. The inhibition at 2 µg/mL (Escherichia coli [35]) was 24.3%, the “fold change (FC)” value (Staphylococcus aureus [36]) was under 4 and the inhibition at 4 µg/mL (Escherichia coli [37]) was 35.3%. For the same compound, the inhibition at 1 µg/mL (Escherichia coli [38]) was 11.3% and the viability at 16 ug/ml [39] was 85.4%.
